# Measured values from ChEMBL document CHEMBL6109146, “Discovery of New Pyrazolone Carbothioamide Derivatives as Potent Antifungal Agents for the Treatment of Candidiasis and Cryptococcosis” (J Med Chem, 2025).
# The source made the active and inactive calls. The rule behind the calls is not given here.
# Columns and labels:
# [1] = test system: Nakaseomyces glabratus; assay: Antifungal activity against Candida glabrata 0161 assessed as inhibition of fungal cell colony formation at 0.5 microg/ml incubated for 48 hrs by spot-plating assay; assay type: functional, organism-based; details: dose 0.5 µg/ml
# [2] = test system: Cryptococcus neoformans; assay: Antifungal activity against Cryptococcus neoformans H99 infected in cryptococcosis female ICR mouse model assessed as reduction in vacuolation in brain at 5 mg/kg, ip pre-infected with fungi for 3 hrs followed by compound administration and measured after 5 days by H and E staining based analysis; assay type: functional, organism-based; details: time 5.0 day
# [3] = test system: Cryptococcus neoformans; assay: Induction of morphological changes in Cryptococcus neoformans H99 assessed as cell wall damage at 4 microg/ml incubated for 8 hrs by transmission electron microscopic analysis; assay type: functional, organism-based; details: dose 4.0 µg/ml
# [4] = test system: Cryptococcus neoformans; assay: Induction of ROS accumulation in Cryptococcus neoformans H99 assessed as increase in intracellular ROS level by measuring intense green fluorescence at 4 microg/ml incubated for 24 hrs by DCFH-DA probe based fluorescence microscopic analysis; assay type: functional, organism-based; details: dose 4.0 µg/ml
# [5] = test system: Cryptococcus neoformans; assay: Fungicidal activity against Cryptococcus neoformans H99 incubated for 72 hrs by time-kill kinetics analysis; assay type: functional
# [6] = test system: Cryptococcus neoformans; assay: Induction of morphological changes in Cryptococcus neoformans H99 assessed as vacuole lysis at 4 microg/ml incubated for 8 hrs by transmission electron microscopic analysis; assay type: functional, organism-based; details: dose 4.0 µg/ml
# [7] = test system: Cryptococcus neoformans; assay: Antifungal activity against Cryptococcus neoformans H99 assessed as inhibition of fungal growth at 4 microg/ml incubated for 48 hrs by spot-plating assay; assay type: functional, organism-based; details: dose 4.0 µg/ml
# [8] = test system: Nakaseomyces glabratus; assay: Upregulation of TRX1 gene expression in Candida glabrata 0161 incubated for 8 hrs by qRT-PCR analysis; assay type: functional
# [9] = test system: Cryptococcus neoformans; assay: Antifungal activity against Cryptococcus neoformans H99 assessed as inhibition of fungal growth at 0.5 to 4 microg/ml incubated for 48 hrs by spot-plating assay; assay type: functional, organism-based; details: dose 0.5-4 µg/ml
# [10] = test system: Nakaseomyces glabratus; assay: Antifungal activity against Candida glabrata 0161 assessed as inhibition of fungal growth in presence of Fe(III) ion; assay type: functional, organism-based
# [11] = Cytotoxicity against HUVEC cells assessed as inhibition of cell proliferation incubated for 48 hrs by WST-8 reagent based assay; assay type: toxicity; details: human
# [12] = test system: Nakaseomyces glabratus; assay: Upregulation of CAT1 gene expression in Candida glabrata 0161 incubated for 8 hrs by qRT-PCR analysis; assay type: functional
# [13] = test system: Cryptococcus neoformans; assay: Antifungal activity against Cryptococcus neoformans H99 infected in cryptococcosis female ICR mouse model assessed as reduction in cytoplasmic loosening at 20 mg/kg, ip pre-infected with fungi for 3 hrs followed by compound administration and measured after 5 days by H and E staining based analysis; assay type: functional, organism-based; details: time 5.0 day
# [14] = test system: Cryptococcus neoformans; assay: Upregulation of SOD1 gene expression in Cryptococcus neoformans H99 at 4 microg/ml incubated for 8 hrs by qRT-PCR analysis; assay type: functional; details: dose 4.0 µg/ml
# [15] = test system: Cryptococcus neoformans; assay: Antifungal activity against Cryptococcus neoformans H99 assessed as inhibition of fungal growth in presence of 1 to 10 microg/ml Fe(III) ion; assay type: functional, organism-based
# [16] = test system: Nakaseomyces glabratus; assay: Antifungal activity against Candida glabrata 0161 infected in candidiasis female ICR mouse model assessed as reduction in detachment of renal tubular epithelial cells at 20 mg/kg, ip pre-infected with fungi for 3 hrs followed by compound administration and measured after 5 days by H and E staining based analysis; assay type: functional, organism-based; details: time 5.0 day
compound,measurement,setting,value
Nc1cc(=O)n(C(=S)Nc2ccc(C3CCCCC3)cc2)[nH]1,Activity,[1],Active
same,Activity,[2],Not active; Slight Vacuolation Observed
same,Activity,[3],inactive
same,Activity,[4],Active
same,MFC,[5],16 µg/mL
same,Activity,[6],Active
same,Activity,[7],Moderate_effect
same,Activity,[8],Active
same,Activity,[9],Active
same,Activity,[10],inactive
same,IC50 at 48 h,[11],0.64 µg/mL
same,Activity,[12],Active
same,Activity,[13],Active
same,Activity,[14],Active
same,Activity,[15],inactive
same,Activity,[16],Active
